Source: publication PMC10320503, “Rapid-reaction kinetics of the butyryl-CoA dehydrogenase component of the electron-bifurcating crotonyl-CoA-dependent NADH:ferredoxin oxidoreductase from Megasphaera elsdenii” (The Journal of Biological Chemistry, 2023)

Key:
[1] = target: T1, bcd (butyryl-CoA dehydrogenase) (Megasphaera elsdenii, UniProt Q06319); assay: UV-visible titration and EPR of the bound flavin; assay type: binding; settings: dithionite titrations at pH 6.0, 7.5 and 9.0, 25 °C; EPR at 77 K
T1 construct: isolated bcd component without EtfAB, C-terminal Strep II tag (pASG-IBA3), expressed in E. coli BL21; FAD-loaded, CoA persulfide removed by dithionite
T1 sequence (Q06319 1-383): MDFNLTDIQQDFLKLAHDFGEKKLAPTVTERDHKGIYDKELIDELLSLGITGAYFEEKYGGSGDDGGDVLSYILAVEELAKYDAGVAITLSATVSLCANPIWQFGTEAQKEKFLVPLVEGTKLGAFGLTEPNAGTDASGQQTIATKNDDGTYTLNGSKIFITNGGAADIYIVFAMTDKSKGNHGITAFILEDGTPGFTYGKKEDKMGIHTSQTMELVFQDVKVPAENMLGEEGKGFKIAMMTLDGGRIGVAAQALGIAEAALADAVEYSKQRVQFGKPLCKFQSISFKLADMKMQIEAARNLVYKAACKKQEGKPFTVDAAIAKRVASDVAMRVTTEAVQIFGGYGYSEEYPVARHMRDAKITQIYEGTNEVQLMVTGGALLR

[2] = target: T1, bcd (butyryl-CoA dehydrogenase); assay: stopped-flow reduction of bcd FAD at […] nm, hyperbolic fit of kobs versus [butyryl-CoA]; assay type: biochemical; settings: oxidized bcd 10 μM, 50 mM Tris-HCl, 150 mM NaCl, pH 7.5, 10 °C, anaerobic; reverse of the physiological direction; read-out: Kd (apparent)
[3] = target: T1, bcd (butyryl-CoA dehydrogenase); assay: stopped-flow reoxidation of reduced bcd; charge-transfer complex absorbance; assay type: biochemical; settings: dithionite-reduced bcd, 50 mM Tris-HCl, 150 mM NaCl, pH 7.5, 10 °C, anaerobic
[4] = target: T2, EtfAB, the electron-transferring flavoprotein component of the crotonyl-CoA-dependent NADH:ferredoxin … (Megasphaera elsdenii, UniProt O85692 1-338; O85691 1-270); assay: stopped-flow spectrophotometry (rate of electron transfer against protein concentration); prereduced EtfAB mixed with oxidized bcd, anaerobic, monitored at 450 nm; 1:1 ratio at 2 to 70 uM, or 3 uM EtfAB with 3 to 24 uM bcd; 50 mM Tris-HCl, 150 mM NaCl, pH 7.5, 25 C; Kd limit inferred from the rate constant being independent of concentration; settings: both partners purified
T2 construct: Electron-transferring flavoprotein alpha subunit (EtfA), Megasphaera elsdenii; Electron-transferring flavoprotein beta subunit (EtfB), Megasphaera elsdenii; prereduced with sodium dithionite before the assay; Plasmid derived from pASG-IBA3; also called prereduced EtfAB; source: E. coli BL21, purified (Strep-Tactin XT Superflow)
T2 sequence (looked up) 1: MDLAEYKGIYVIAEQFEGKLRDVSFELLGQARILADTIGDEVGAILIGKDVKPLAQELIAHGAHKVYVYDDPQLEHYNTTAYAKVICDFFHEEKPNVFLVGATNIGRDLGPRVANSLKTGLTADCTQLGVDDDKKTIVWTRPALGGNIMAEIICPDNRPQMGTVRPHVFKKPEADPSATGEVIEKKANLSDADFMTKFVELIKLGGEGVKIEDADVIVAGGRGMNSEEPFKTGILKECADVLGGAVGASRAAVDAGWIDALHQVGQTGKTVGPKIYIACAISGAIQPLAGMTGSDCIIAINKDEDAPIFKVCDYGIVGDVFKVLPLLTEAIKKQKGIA
T2 sequence (looked up) 2: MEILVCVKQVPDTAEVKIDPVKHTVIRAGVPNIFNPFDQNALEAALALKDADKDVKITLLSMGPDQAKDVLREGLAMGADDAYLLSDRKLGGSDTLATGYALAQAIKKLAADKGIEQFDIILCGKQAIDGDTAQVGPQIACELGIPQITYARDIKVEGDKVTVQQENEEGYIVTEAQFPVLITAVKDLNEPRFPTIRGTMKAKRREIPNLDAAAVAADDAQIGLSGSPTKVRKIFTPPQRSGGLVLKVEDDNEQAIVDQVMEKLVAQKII

For `Cc1cc2nc3c(=O)[nH]c(=O)nc-3n(C[C@H](O)[C@H](O)[C@H](O)COP(=O)(O)OP(=O)(O)OC[C@H]3O[C@@H](n4cnc5c(N)ncnc54)[C@H](O)[C@@H]3O)c2cc1C` [FAD], the “UV-visible titration and EPR of the bound flavin” value [1] was “the one-electron reduced FAD neutral semiquinone (FADH•) accumulates transiently”.

For `CCCC(=O)SCCNC(=O)CCNC(=O)[C@H](O)C(C)(C)COP(=O)(O)OP(=O)(O)OC[C@H]1O[C@@H](n2cnc3c(N)ncnc32)[C@H](O)[C@@H]1OP(=O)(O)O` [butyryl-CoA], the Kd [2] was 60 µM.

`C/C=C/C(=O)SCCNC(=O)CCNC(=O)[C@H](O)C(C)(C)COP(=O)(O)OP(=O)(O)OC[C@H]1O[C@@H](n2cnc3c(N)ncnc32)[C@H](O)[C@@H]1OP(=O)(O)O` [crotonyl-CoA] was tested, and the “stopped-flow reoxidation of reduced bcd; charge-transfer complex absorbance” value [3] was “indicating extremely rapid and tight binding of crotonyl-CoA to bcd”.

B1: butyryl-CoA dehydrogenase (bcd) component of EtfAB-bcd from Megasphaera elsdenii (enzyme)
chain: T1 sequence (Q06319 1-383)
notes: Butyryl-CoA dehydrogenase, Megasphaera elsdenii, locus tag Mels_2128; oxidized form in the assay; Plasmid derived from pASG-IBA3; also called oxidized bcd; source: E. coli BL21, purified (Strep-Tactin XT Superflow)
B1 was tested, and the Kd [4] was < 2 µM.
